Assay results published in patent publication US9232796B2, “Herbicidal compositions comprising 4-amino-3-chloro-5-fluoro-6-(4-chloro-2-fluoro-3-methoxyphenyl) pyridine-2-carboxylic acid or a derivative thereof and acetyl-CoA carboxylase (ACCase) inhibitors” (DOW AGROSCIENCES LLC, priority 2012, dated 2016).

Experiments:
LEFCH = experiment: Example II in-water applied, greenhouse, transplanted paddy rice weeds; assay type: in vivo, Leptochloa chinensis (L.) Nees
Procedure: Weed seeds or nutlets of the desired test plant species were planted in puddled soil (mud) prepared by mixing a shredded, non-sterilized mineral soil (50.5 percent silt, 25.5 percent clay, and 24 percent sand, with a pH of about 7.6 and an organic matter content of about 2.9 percent) and water at a 1:1 volumetric ratio. The prepared mud was dispensed in 365 mL aliquots into 16-ounce (oz.) non-perforated plastic pots with a surface area of 86.59 square centimeters (cm^2) leaving a headspace of 3 centimeters (cm) in each pot. Mud was allowed to dry overnight prior to planting or transplanting. Rice seeds were planted in Sun Gro MetroMix® 306 planting mixture, which typically has a pH of 6.0 to 6.8 and an organic matter content of about 30 percent, in plastic plug trays. Seedlings at the second or third leaf stage of growth were transplanted into 860 mL of mud contained in 32-oz. non-perforated plastic pots with a surface area of 86.59 cm^2 4 days prior to herbicide application. The paddy was created by filling the headspace of the pots with 2.5 to 3 cm of water. […] The plants were grown for 4-22 days in a greenhouse with an approximate 14 hr. photoperiod which was maintained at about 29° C. during the day and 26° C. during the night. Nutrients were added as Osmocote® (19:6:12, N:P:K+minor nutrients) at 2 g per 16-oz. pot and 4 g per 32-oz. pot. Water was added on a regular basis to maintain the paddy flood, and supplemental lighting was provided with overhead metal halide 1000-Watt lamps as necessary. The plants were employed for testing when they reached the first through fourth true leaf stage.
Treatments consisted of the acid or esters of 4-amino-3-chloro-5-fluoro-6-(4-chloro-2-fluoro-3-methoxy-phenyl)pyridine-2-carboxylic acid (compound A) each formulated as an SC (suspension concentrate) and various herbicidal components alone and in combination.
(§1) For formulated compounds, a measured amount was placed in an individual 100 or 200 mL glass vial and was dissolved in a volume of 1.25% (v/v) Agri-Dex® crop oil concentrate to obtain application solutions.
(§2) Applications were made by injecting with a pipetter appropriate amounts of the application solutions, individually and sequentially, into the aqueous layer of the paddy. Control plants were treated in the same manner with the solvent blank. Applications were made so that all treated plant material received the same concentrations of acetone and crop oil concentrate.
(§3) The treated plants and control plants were placed in a greenhouse as described above and water was added as needed to maintain a paddy flood. After approximately 3 weeks the condition of the test plants as compared with that of the untreated plants was determined visually and scored on a scale of 0 to 100 percent where 0 corresponds to no injury or growth inhibition and 100 corresponds to complete kill.
(§4) Colby's equation was used to determine the herbicidal effects expected from the mixtures (Colby, S. R. 1967. Calculation of the synergistic and antagonistic response of herbicide combinations. Weeds 15:20-22.).
The following equation was used to calculate the expected activity of mixtures containing two active ingredients, A and B: Expected=A+B−(A×B/100)

ECHOR = experiment: Example VI in-water applied ternary mixtures, greenhouse, transplanted paddy rice weeds; assay type: in vivo, Echinochloa oryzoides (Ard.) Fritsch
Procedure: Weed seeds or nutlets of the desired test plant species were planted in puddled soil (mud) prepared by mixing a shredded, non-sterilized mineral soil (50.5 percent silt, 25.5 percent clay, and 24 percent sand, with a pH of about 7.6 and an organic matter content of about 2.9 percent) and water at a 1:1 volumetric ratio. The prepared mud was dispensed in 365 mL aliquots into 16-ounce (oz.) non-perforated plastic pots with a surface area of 86.59 square centimeters (cm^2) leaving a headspace of 3 centimeters (cm) in each pot. Mud was allowed to dry overnight prior to planting or transplanting. Rice seeds were planted in Sun Gro MetroMix® 306 planting mixture, which typically has a pH of 6.0 to 6.8 and an organic matter content of about 30 percent, in plastic plug trays. Seedlings at the second or third leaf stage of growth were transplanted into 860 mL of mud contained in 32-oz. non-perforated plastic pots with a surface area of 86.59 cm^2 4 days prior to herbicide application. The paddy was created by filling the headspace of the pots with 2.5 to 3 cm of water. When required to ensure good germination and healthy plants, a fungicide treatment and/or other chemical or physical treatment was applied. The plants were grown for 4-22 days in a greenhouse with an approximate 14 hr. photoperiod which was maintained at about 29° C. during the day and 26° C. during the night. Nutrients were added as Osmocote® (19:6:12, N:P:K+minor nutrients) at 2 g per 16-oz. pot and 4 g per 32-oz. pot. Water was added on a regular basis to maintain the paddy flood, and supplemental lighting was provided with overhead metal halide 1000-Watt lamps as necessary. The plants were employed for testing when they reached the first through fourth true leaf stage.
Treatments consisted of the benzyl ester of 4-amino-3-chloro-5-fluoro-6-(4-chloro-2-fluoro-3-methoxy-phenyl)pyridine-2-carboxylic acid (Compound A), formulated as an SC (suspension concentrate), an ACCase inhibitor herbicide, and a third herbicidal component, each applied alone and in ternary combination. Forms of compound A were applied on an acid equivalent basis.
The ACCase inhibitor component was applied on an active ingredient basis and included cyhalofop-R-butyl formulated as Clincher® G and metamifop formulated as Metamifop EC. Other herbicidal components were applied on an active ingredient or acid equivalent basis depending on the compound and included penoxsulam formulated as Grasp® SC, bentazon sodium formulated as Basagran®, triclopyr […] (TEA) salt formulated as Grandstand® R, benzobicyclon formulated as Benzobicyclon, benfuresate formulated as Full Slot® WG, pyraclonil formulated as Pyraclon® Flowable, mefenacet (technical grade material), and pretilachlor (technical grade material).
Treatment requirements for each compound or herbicidal component were calculated based upon the rates being tested, the concentration of active ingredient or acid equivalent in the formulation, an application volume of 1 mL per component per pot, and an application area of 86.59 cm^2 per pot.
as §1
For technical grade compounds, a weighed amount was placed in an individual 100 to 200 mL glass vial and was dissolved in a volume of acetone to obtain concentrated stock solutions.
as §2, with “solutions,” for “solutions, individually and sequentially,”
The treated plants and control plants were placed in a greenhouse as described above and water was added as needed to maintain a paddy flood. […]

CYPIR = experiment: Example V (second) postemergence foliar-applied ternary mixtures, greenhouse, direct seeded rice weeds; assay type: in vivo, Cyperus iria L.
Procedure: as §3, with “watered by sub-irrigation” for “water was added as needed”, “prevent wash-off of the test compounds.” for “maintain a paddy flood.”, “weeks,” for “weeks”
as §4
The following equation was used to calculate the expected activity of mixtures containing three active ingredients, A, B, and C: Expected=A+B+C−((A×B+A×C+B×C)/100)+(A×B×C/10000)

COc1c(Cl)ccc(-c2nc(C(=O)O)c(Cl)c(N)c2F)c1F [Compound A Acid, 4-amino-3-chloro-6-(4-chloro-2-fluoro-3-methoxyphenyl)-5-fluoropyridine-2-carboxylic acid]
Visual Weed Control (%) - 19 DAA LEFCH Obs (LEFCH; 42.4 gae/ha in-water): 10%
Visual Weed Control (%) - 21 DAA LEFCH Obs (LEFCH; in-water, 17.5 gae/ha): 0%
Visual Weed Control (%) - 21 DAA LEFCH Obs (LEFCH; in-water, 35 gae/ha): 20%

COc1c(Cl)ccc(-c2nc(C(=O)OCc3ccccc3)c(Cl)c(N)c2F)c1F [Compound A Benzyl Ester, benzyl ester of 4-amino-3-chloro-5-fluoro-6-(4-chloro-2-fluoro-3-methoxy-phenyl)pyridine-2-carboxylic acid]
Visual Weed Control (%) - 24 DAA ECHOR Obs (ECHOR; Table 67, 4 gae/ha): 0%
Visual Weed Control (%) - 24 DAA ECHOR Obs (ECHOR; Table 67, 8 gae/ha): 0%
Visual Weed Control (%) - 24 DAA ECHOR Obs (ECHOR; Table 67, 16 gae/ha): 10%
Visual Weed Control (%) - 24 DAA ECHOR Obs (ECHOR; Table 71, 8 gae/ha): 10%
Visual Weed Control (%) - 24 DAA ECHOR Obs (ECHOR; Table 71, 16 gae/ha): 25%
Visual Weed Control (%) - 21 DAA CYPIR Obs (CYPIR; 8 gae/ha): 53%
Visual Weed Control (%) - 22 DAA CYPIR Obs (CYPIR; 8 gae/ha): 37%
Visual Weed Control (%) - 21 DAA CYPIR Obs (CYPIR; 16 gae/ha): 95%

CCCCOC(=O)[C@@H](C)Oc1ccc(Oc2ccc(C#N)cc2F)cc1 [Cyhalofop-butyl, butyl(2R)-2-[4-(4-cyano-2-fluorophenoxy)phenoxy]propanoate, reference compound]
Visual Weed Control (%) - 24 DAA ECHOR Obs (ECHOR; Table 67, 90 gai/ha): 25%
Visual Weed Control (%) - 19 DAA LEFCH Obs (LEFCH; 180 gai/ha, in-water): 75%
Visual Weed Control (%) - 21 DAA CYPIR Obs (CYPIR; 35 gai/ha): 0%

C[C@@H](Oc1ccc(Oc2nc3ccc(Cl)cc3o2)cc1)C(=O)N(C)c1ccccc1F [Metamifop, (2R)-2-[4-[(6-chloro-2-benzoxazolyl)oxy]phenoxy]-N-(2-fluorophenyl)-N-methylpropanamide]
Visual Weed Control (%) - 24 DAA ECHOR Obs (ECHOR; Table 71, 25 gai/ha): 10%
Visual Weed Control (%) - 24 DAA ECHOR Obs (ECHOR; Table 71, 50 gai/ha): 18%

CCC/C(=N\OCC(C)Oc1ccc(Cl)cc1)C1=C(O)CC(C2CCCSC2)CC1=O (stereo not shown) [Profoxydim, 2-[1-[[2-(4-chlorophenoxy)propoxy]imino]butyl]-3-hydroxy-5-(tetrahydro-2H-thiopyran-3-yl)-2-cyclohexen-1-one, reference compound]
Visual Weed Control (%) - 21 DAA LEFCH Obs (LEFCH; in-water, 25 gai/ha): 85%
Visual Weed Control (%) - 22 DAA CYPIR Obs (CYPIR; 3.12 gai/ha): 0%
Visual Weed Control (%) - 22 DAA CYPIR Obs (CYPIR; 6.25 gai/ha): 0%
